Laboratory results from paper PMC11062894, “Protein-based bandpass filters for controlling cellular signaling with chemical inputs” (Nature Chemical Biology, 2023).

Test system: HEK293T cells
Type: cell-based
Conditions: 10 µM A-1155463
Source text: drug controlled switches. […]
drug competition assay. This assay is designed to test if the drug of interest can specifically disrupt the interaction between LD3 and BclXL/Bcl2. The drug-receptors (Bcl2, BclXL) are immobilized on the different channels of the sensor chip, then the binding sites are saturated with LD3. While the flux of A-1155463 (red) flows through the sensor chip, the loss of signal is used to monitor the dissociation of the protein complex. b) Drug effects on reporter protein expression of HEK293T cells. HEK293T cells were transfected with a plasmid for constitutive SEAP production and incubated with indicated drugs for 24 hours. SEAP quantifications were performed to measure the protein production and WST-8 was used to test the cell proliferation. Each bar represents the mean of six biological replicates ± s.d., overlaid with a scatter dot plot of the original data points. […]
was added after 24 hours of drug incubation, and measured for absorbance at 450 nm 4 hours later. […]
production of HEK293T cells. […] SEAP quantifications were performed to measure the protein production and WST-8 was used to test the cell proliferation. For cell proliferation assay, WST-8 was added after 24 hours of drug incubation, and measured its absorbance at 450 nm 4 hours later. […]
ranging from 1 pM to 1 µM were added 12 hours post-transfection, then SEAP was measured 24 hours […]

CN(C)CC#Cc1ccc(OCCCc2sc(N3CCc4cccc(C(=O)Nc5nc6ccccc6s5)c4C3)nc2C(=O)O)c(F)c1 [A-1155463]
effect on cell survival: does not perturb | effect on reporter gene expression: does not perturb
